In patent publication US11008313B2, “Substituted 1-methyl-1,2,3,4-tetrahydroisoquinoline molecules as PCSK9 allosteric binders” (Merck Sharp & Dohme Corp., priority 2016, dated 2021):

What was measured:
[1] = target: T1, PCSK9 (Homo sapiens, UniProt Q8NBP7); test: Differential scanning calorimetry (DSC) assay, direct binding / thermal stabilization of PCSK9; conditions: Tm(with compound)−Tm(no compound); 2 μM PCSK9, 300 μM test compound
Experimental: Differential scanning calorimetry (DSC) was used as a biophysical method to confirm direct binding to PCSK9. A solution containing 2 μM PCSK9 with or without 300 μM test compound in 25 mM HEPES (pH 7.5)/150 mM NaCl/1 mM CaCl2/3.75% DMSO was transferred to the sample cell of the DSC instrument, while buffer alone was placed in the reference cell. Both cells were heated at a constant rate (200° C./hr) from 20-80° C. while recording the excess heat capacity of the sample cell relative to the reference cell. Each thermogram was analyzed to provide the melting temperature (Tm) of the protein.
The higher the temperature shift generally, the higher the affinity.

[2] = target: T1, PCSK9; test: Fluorescence polarization competition binding assay (probe: compound of Example 57); conditions: 2 μM PCSK9, 50 nM compound of Example 57 as probe, overnight incubation; read-out: FP IC
Experimental: Relative compound affinities were determined using a competition binding assay with a fluorescence polarization format. Solution (49 μL) containing 2 μM PCSK9 and 50 nM compound of Example 57 in 20 mM HEPES (pH 7.5)/150 mM NaCl/1 mM CaCl2/0.005% P-20 was dispensed to wells of a 384-well black non-binding microplate before the addition of 1 μL of test compound or DMSO. After mixing, the plate was centrifuged and sealed for overnight incubation in the dark. The anisotropy signal was read using a fluorescence polarization protocol on a Perkin-Elmer Envision plate reader. The % inhibition was determined relative to the window defined by the DMSO control wells and wells containing 50 nM probe in the absence of PCSK9.

T1 sequence (Q8NBP7 153-692): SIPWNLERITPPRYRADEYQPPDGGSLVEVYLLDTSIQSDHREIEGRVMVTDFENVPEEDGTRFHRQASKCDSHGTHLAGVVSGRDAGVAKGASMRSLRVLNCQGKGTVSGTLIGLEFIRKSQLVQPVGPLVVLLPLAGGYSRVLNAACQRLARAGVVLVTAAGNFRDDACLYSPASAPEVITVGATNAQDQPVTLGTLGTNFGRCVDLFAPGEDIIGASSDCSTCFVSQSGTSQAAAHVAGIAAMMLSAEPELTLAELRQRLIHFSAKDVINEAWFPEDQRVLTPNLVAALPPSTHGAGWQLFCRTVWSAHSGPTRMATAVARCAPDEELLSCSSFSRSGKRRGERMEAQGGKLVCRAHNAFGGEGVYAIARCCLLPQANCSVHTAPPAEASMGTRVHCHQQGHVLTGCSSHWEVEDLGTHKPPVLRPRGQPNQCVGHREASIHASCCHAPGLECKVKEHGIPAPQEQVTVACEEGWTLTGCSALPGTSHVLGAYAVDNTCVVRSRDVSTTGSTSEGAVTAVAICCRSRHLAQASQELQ

| SMILES | ΔTm at 300 µM [1] [°C] | IC50 [2] [nM] | DSC ΔTm [1] [°C] |
| --- | --- | --- | --- |
| C[C@]1(CC(=O)Nc2nccs2)NCCc2cc(OCC3CCCCO3)c(Oc3ccc(C(=O)Nc4n[nH]c5ncccc45)c(F)c3)cc21 (single isomer, unassigned) [Example 75, 2-fluoro-4-(((R)-1-methyl-1-(2-oxo-2-(thiazol-2-ylamino)ethyl)-6-(((R or S)-tetrahydro-2H-pyran-2-yl)methoxy)-1,2,3,4-tetrahydroisoquinolin-7-yl)oxy)-N-(1H-pyrazolo[3,4-b]pyridin-3-yl)benzamide] | 6.18 | 410 |  |
| C[C@]1(CC(=O)Nc2nccs2)NCCc2cc(OCC3CCCCO3)c(Oc3cccc(F)c3)cc21 (single isomer, unassigned) [Example 80, 2-((1R)-7-(3-fluorophenoxy)-1-methyl-6-(((R or S)-tetrahydro-2H-pyran-2-yl)methoxy)-1,2,3,4-tetrahydroisoquinolin-1-yl)-N-(thiazol-2-yl)acetamide] | 6.09 | 550 |  |
| C[C@]1(CC(=O)Nc2nccs2)NCCc2cc(OCC3CCCCO3)c(Oc3cccc(F)c3)cc21 (single isomer, unassigned) [Example 81, 2-((1R)-7-(3-fluorophenoxy)-1-methyl-6-(((S or R)-tetrahydro-2H-pyran-2-yl)methoxy)-1,2,3,4-tetrahydroisoquinolin-1-yl)-N-(thiazol-2-yl)acetamide] |  | 550 | 6.585 |
| CC1=CC(C)=[N+]2C1=Cc1ccc(CCC(=O)NCCOCCOc3cc4c(cc3Oc3ccc(C(=O)O)c(F)c3)[C@@](C)(CC(=O)Nc3nccs3)NCC4)n1[B-]2(F)F [Example 57] |  |  | 6.15 |
| C[C@]1(CC(=O)Nc2nccs2)NCCc2cc(OCCOCCOCCNC(=O)CCCC[C@@H]3SC[C@@H]4NC(=O)N[C@@H]43)c(Oc3ccc(C(=O)O)cc3)cc21 [Example 58, 4-(((R)-1-methyl-1-(2-oxo-2-(thiazol-2-ylamino)ethyl)-6-(2-(2-(2-(5-((3aS,4S,6aR)-2-oxohexahydro-1H-thieno[3,4-d]imidazol-4-yl)pentanamido)ethoxy)ethoxy)ethoxy)-1,2,3,4-tetrahydroisoquinolin-7-yl)oxy)benzoic acid] | 5.88 |  |  |
| Cc1cc(C)n2c1C=C1C=CC(CCC(=O)NCCOCCOc3cc4c(cc3Oc3ccc(C(=O)O)cc3)[C@@](C)(CC(=O)Nc3nccs3)NCC4)=[N+]1[B-]2(F)F [Example 59, (R)-4-((6-(2-(2-(3-(5,5-difluoro-7,9-dimethyl-5H-4l4,5l4-dipyrrolo[1,2-c:2′,1′-f][1,3,2]diazaborinin-3-yl)propanamido)ethoxy)ethoxy)-1-methyl-1-(2-oxo-2-(thiazol-2-ylamino)ethyl)-1,2,3,4-tetrahydroisoquinolin-7-yl)oxy)benzoic acid] | 5.15 |  |  |
| C[C@]1(CC(=O)Nc2nccs2)NCCc2cc(OCCOCCNC(=O)CCCC[C@@H]3SC[C@@H]4NC(=O)N[C@@H]43)c(Oc3ccc(C(=O)O)cc3)cc21 [Example 60, 4-(((R)-1-methyl-1-(2-oxo-2-(thiazol-2-ylamino)ethyl)-6-(2-(2-(5-((3aS,4S,6aR)-2-oxohexahydro-1H-thieno[3,4-d]imidazol-4-yl)pentanamido)ethoxy)ethoxy)-1,2,3,4-tetrahydroisoquinolin-7-yl)oxy)benzoic acid] | 6.42 |  |  |
| COC(=O)c1ccc(Oc2cc3c(cc2OCCOCCNC(=O)CCC2=[N+]4C(=Cc5c(C)cc(C)n5[B-]4(F)F)C=C2)CCN[C@]3(C)CC(=O)Nc2nccs2)cc1F [Example 61, methyl (R)-4-((6-(2-(2-(3-(5,5-difluoro-7,9-dimethyl-5H-4l4,5l4-dipyrrolo[1,2-c:2′,1′-f][1,3,2]diazaborinin-3-yl)propanamido)ethoxy)ethoxy)-1-methyl-1-(2-oxo-2-(thiazol-2-ylamino)ethyl)-1,2,3,4-tetrahydroisoquinolin-7-yl)oxy)-2-fluorobenzoate] | 2.87 |  |  |
| Cc1ncsc1-c1ccc(CNC(=O)[C@@H]2C[C@@H](O)CN2C(=O)[C@@H](NC(=O)COCC(=O)NCCOCCOc2cc3c(cc2Oc2ccc(-c4ccc(C(=O)O)cc4)c(F)c2)[C@@](C)(CC(=O)Nc2nccs2)NCC3)C(C)(C)C)cc1 [Example 105, 2′-fluoro-4′-(((R)-6-(((S)-13-((2S,4R)-4-hydroxy-2-((4-(4-methylthiazol-5-yl)benzyl)carbamoyl)pyrrolidine-1-carbonyl)-14,14-dimethyl-7,11-dioxo-3,9-dioxa-6,12-diazapentadecyl)oxy)-1-methyl-1-(2-oxo-2-(thiazol-2-ylamino)ethyl)-1,2,3,4-tetrahydroisoquinolin-7-yl)oxy)-[1,1′-biphenyl]-4-carboxylic acid] |  | 225 |  |
| COc1cc2c(cc1-c1ccc(F)c(C(=O)O)c1)[C@@](C)(CC(=O)Nc1nccs1)NCC2 [Example 112, (R)-2-fluoro-5-(6-methoxy-1-methyl-1-(2-oxo-2-(thiazol-2-ylamino)ethyl)-1,2,3,4-tetrahydroisoquinolin-7-yl)benzoic acid] | 6.8 |  |  |

More lines, main results first:

| ΔTm at 300 µM [1] [°C] | IC50 [2] [nM] | SMILES | DSC ΔTm [1] [°C] |
| --- | --- | --- | --- |
| 7.98 | 551 | C[C@]1(CC(=O)Nc2nccs2)NCCc2cc(OCC3CCCCO3)c(Oc3ccc(C(=O)O)c(F)c3)cc21 (single isomer, unassigned) [Example 70, 2-fluoro-4-(((1R)-1-methyl-1-(2-oxo-2-(thiazol-2-ylamino)ethyl)-6-(((R or S)-tetrahydro-2H-pyran-2-yl)methoxy)-1,2,3,4-tetrahydroisoquinolin-7-yl)oxy)benzoic acid] |  |
| 6.67 | 591 | Cn1nccc1NC(=O)c1ccc(Oc2cc3c(cc2OCC2CCCCO2)CCN[C@]3(C)CC(=O)Nc2nccs2)cc1F (single isomer, unassigned) [Example 77, 2-fluoro-4-(((R)-1-methyl-1-(2-oxo-2-(thiazol-2-ylamino)ethyl)-6-(((R or S)-tetrahydro-2H-pyran-2-yl)methoxy)-1,2,3,4-tetrahydroisoquinolin-7-yl)oxy)-N-(1-methyl-1H-pyrazol-5-yl)benzamide] |  |
| 4.29 | 3670 | COc1cc2c3cc1Oc1ccc(C(=O)O)c(c1)OCCCCCCc1csc(n1)NC(=O)C[C@@]3(C)NCC2 [Example 1, (Z)-36-methoxy-31-methyl-5-oxo-31,32,33,34-tetrahydro-2,14-dioxa-6-aza-7(2,4)-thiazola-3(7,1)-isoquinolina-1(1,3)-benzenacyclotetradecaphane-14-carboxylic acid] |  |
| 6.21 | 1240 | COc1cc2c3cc1Oc1ccc(C(=O)O)c(c1)OC/C=C\CCc1csc(n1)NC(=O)C[C@@]3(C)NCC2 [Example 2, (R,72Z)-36-methoxy-31-methyl-5-oxo-31,32,33,34-tetrahydro-2,13-dioxa-6-aza-7(2,4)-thiazola-3(7,1)-isoquinolina-1(1,3)-benzenacyclotridecaphan-10-ene-14-carboxylic acid] |  |
| 4.92 | 1250 | COC(=O)c1ccc2cc1OCCCCCc1csc(n1)NC(=O)C[C@@]1(C)NCCc3cc(OC)c(cc31)O2 [Example 3, methyl (R,Z)-36-methoxy-31-methyl-5-oxo-31,32,33,34-tetrahydro-2,13-dioxa-6-aza-7(2,4)-thiazola-3(7,1)-isoquinolina-1(1,3)-benzenacyclotridecaphane-14-carboxylate] |  |
